In the supplement of paper PMC10307832 one finds relative viability data, which are given here for four cell lines.

Holding throughout (assay): relative viability (nuclei count vs DMSO), 5 days (fraction); higher = more cells survive
Compound in experiment [1]: Cn1cc(-c2cnn3c(N)c(Br)c([C@@H]4CCCNC4)nc23)cn1 + CC(=O)c1c(C)c2cnc(Nc3ccc(N4CCNCC4)cn3)nc2n(C2CCCC2)c1=O [Palbociclib] (partner 0.5 µM)
The essentials:
(§1)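 Lung cancer cell lines in 1536-well plates got either a single drug or a fixed anchor-drug dose together with five library-drug doses (not always all listed) in √10 steps, by pin tool, on the day after seeding. Nuclei were counted after 5 days, and relative viability is the treated-to-vehicle ratio of nuclei counts. Values are medians of duplicate plates.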

Compound in experiment [2]: Cn1cc(-c2cnn3c(N)c(Br)c([C@@H]4CCCNC4)nc23)cn1 + C[C@@H](Oc1cc(-c2cnn(C3CCNCC3)c2)cnc1N)c1c(Cl)ccc(F)c1Cl [Crizotinib] (partner 1 µM)
The essentials: as §1

Compound in experiment [3]: Cn1cc(-c2cnn3c(N)c(Br)c([C@@H]4CCCNC4)nc23)cn1 + NC(=O)Nc1cc(-c2cccc(F)c2)sc1C(=O)N[C@H]1CCCNC1 [AZD7762] (partner 0.2 µM)
The method, boiled down:
as §1

Compound in experiment [4]: Cn1cc(-c2cnn3c(N)c(Br)c([C@@H]4CCCNC4)nc23)cn1 + O=C(CCCCCCC(=O)Nc1ccccc1)NO [Vorinostat] (partner 1 µM)
The essentials:
as §1

Regarding NCI-H3122, the relative viability in experiment [1] (first compound 0.05 µM) turned out to be 0.169; in experiment [1] (first compound 0.1581 µM) it was 0.164; in experiment [1] (first compound 0.5 µM), 0.227; in experiment [1] (first compound 1.581 µM), 0.182; in experiment [1] (first compound 5 µM) it was 0.163; in experiment [2] (first compound 0.05 µM) it was 0.305. Further, the relative viability was 0.275 in experiment [2] (first compound 0.1581 µM); 0.255 in experiment [2] (first compound 0.5 µM); 0.273 in experiment [2] (first compound 1.581 µM); 0.263 in experiment [2] (first compound 5 µM); 0.981 in experiment [3] (first compound 0.05 µM); 1.07 in experiment [3] (first compound 0.1581 µM). In addition, the relative viability in experiment [3] (first compound 0.5 µM) came out at 1; in experiment [3] (first compound 1.581 µM), 0.883; in experiment [3] (first compound 5 µM), 1.16; in experiment [4] (first compound 0.05 µM), 0.999; in experiment [4] (first compound 0.1581 µM), 1.12; in experiment [4] (first compound 0.5 µM), 0.987. Also, the relative viability in experiment [4] (first compound 1.581 µM) is 0.88; in experiment [4] (first compound 5 µM) it was 1.11.

With PC-3 [JPC-3], the relative viability in experiment [1] (first compound 0.05 µM) came to 0.499; in experiment [1] (first compound 0.1581 µM), 0.53; in experiment [1] (first compound 1.581 µM), 0.512; in experiment [1] (first compound 5 µM) it was 0.562; in experiment [2] (first compound 0.05 µM), 1; in experiment [2] (first compound 0.1581 µM) it was 1.01. In addition, the relative viability in experiment [2] (first compound 0.5 µM) is 1.02; in experiment [2] (first compound 1.581 µM), 0.835; in experiment [2] (first compound 5 µM), 1.12; in experiment [3] (first compound 0.05 µM), 0.774; in experiment [3] (first compound 0.1581 µM), 0.766; in experiment [3] (first compound 1.581 µM) it was 0.616. The relative viability is 0.637 in experiment [3] (first compound 5 µM); 0.656 in experiment [4] (first compound 0.05 µM); 0.747 in experiment [4] (first compound 0.1581 µM); 0.834 in experiment [4] (first compound 1.581 µM); 0.566 in experiment [4] (first compound 5 µM).

For the cell line PC-14, the relative viability worked out at 0.614 in experiment [1] (first compound 0.05 µM); 0.358 in experiment [1] (first compound 0.1581 µM); 0.269 in experiment [1] (first compound 0.5 µM); 0.156 in experiment [1] (first compound 1.581 µM); 0.121 in experiment [1] (first compound 5 µM); 0.95 in experiment [2] (first compound 0.05 µM). Moreover, the relative viability in experiment [2] (first compound 0.1581 µM) was 1.06; in experiment [2] (first compound 0.5 µM), 1.01; in experiment [2] (first compound 1.581 µM), 0.83; in experiment [2] (first compound 5 µM), 0.386; in experiment [3] (first compound 0.05 µM), 0.348; in experiment [3] (first compound 0.1581 µM), 0.273. Besides, the relative viability was 0.332 in experiment [3] (first compound 0.5 µM); 0.277 in experiment [3] (first compound 1.581 µM); 0.182 in experiment [3] (first compound 5 µM); 0.752 in experiment [4] (first compound 0.05 µM); 0.601 in experiment [4] (first compound 0.1581 µM); 0.527 in experiment [4] (first compound 0.5 µM). The relative viability in experiment [4] (first compound 1.581 µM) amounted to 0.223; in experiment [4] (first compound 5 µM) it was 0.117.

As to RERF-LC-KJ, the relative viability came out at 0.983 in experiment [1] (first compound 0.05 µM); 1.04 in experiment [1] (first compound 0.1581 µM); 1.03 in experiment [1] (first compound 0.5 µM); 0.863 in experiment [1] (first compound 1.581 µM); 0.712 in experiment [1] (first compound 5 µM); 0.828 in experiment [2] (first compound 0.05 µM). The relative viability was found to be 0.958 in experiment [2] (first compound 0.1581 µM); 0.775 in experiment [2] (first compound 0.5 µM); 0.788 in experiment [2] (first compound 1.581 µM); 0.8 in experiment [2] (first compound 5 µM); 1.1 in experiment [3] (first compound 0.05 µM); 0.864 in experiment [3] (first compound 0.1581 µM). In addition, the relative viability turned out to be 1.1 in experiment [3] (first compound 0.5 µM); 0.872 in experiment [3] (first compound 1.581 µM); 0.749 in experiment [3] (first compound 5 µM); 0.636 in experiment [4] (first compound 0.05 µM); 0.808 in experiment [4] (first compound 0.1581 µM); 0.802 in experiment [4] (first compound 0.5 µM). For the same cell line, the relative viability stood at 0.599 in experiment [4] (first compound 1.581 µM) and 0.6 in experiment [4] (first compound 5 µM).
